# Measured values reported in ChEMBL document CHEMBL1201862, “PubChem BioAssay data set” (2004).
# Calls of active or inactive are those of the source.
# What was measured:
# [1] = tested on: Escherichia coli; test: microbe, parasite or virus in culture
# [2] = biological target: Cytochrome P450 2C9 (Homo sapiens, UniProt P11712)
# [3] = tested on: Escherichia coli; test: microbe, parasite or virus in culture; remark: listed apart in the source
# [4] = biological target: T1, Bcl-2-related protein A1 (Mus musculus, UniProt Q07440); format: functional;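 further: confirmatory dose–response counterscreen on Bfl-1, used to check hits from a UBC13 polyubiquitin inhibitor campaign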
# T1 sequence (Q07440 whole entry): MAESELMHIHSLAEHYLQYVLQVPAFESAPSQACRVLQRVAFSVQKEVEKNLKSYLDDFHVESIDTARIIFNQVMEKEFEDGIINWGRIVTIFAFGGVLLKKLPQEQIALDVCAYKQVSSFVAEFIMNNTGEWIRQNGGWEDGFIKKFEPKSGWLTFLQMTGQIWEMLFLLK
# [5] = biological target: T2, Ubiquitin-conjugating enzyme E2 N (Homo sapiens, UniProt P61088); format: functional
# T2 sequence (P61088 whole entry): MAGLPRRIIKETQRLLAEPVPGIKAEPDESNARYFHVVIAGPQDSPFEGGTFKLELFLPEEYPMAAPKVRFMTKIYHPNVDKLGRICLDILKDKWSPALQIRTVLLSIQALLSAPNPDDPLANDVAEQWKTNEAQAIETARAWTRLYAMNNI
# [6] = biological target: T2, Ubiquitin-conjugating enzyme E2 N; format: functional; remark: listed apart in the source
# [7] = biological target: Nonstructural protein 1 (Influenza A virus, UniProt Q194T2); format: functional, Influenza A virus (A/California/07/2009(H1N1))
# Nonstructural protein 1, sequence (Q194T2 whole entry): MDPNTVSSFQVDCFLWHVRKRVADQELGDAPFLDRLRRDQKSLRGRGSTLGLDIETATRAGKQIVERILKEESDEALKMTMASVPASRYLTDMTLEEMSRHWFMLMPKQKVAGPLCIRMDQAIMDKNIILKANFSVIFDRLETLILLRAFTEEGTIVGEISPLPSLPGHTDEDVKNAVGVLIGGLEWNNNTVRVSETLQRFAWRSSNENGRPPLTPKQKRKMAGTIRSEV
# [8] = biological target: T3, DNA repair protein RAD52 homolog (Homo sapiens, UniProt P43351); format: functional, biochemical
# T3 sequence (P43351 whole entry): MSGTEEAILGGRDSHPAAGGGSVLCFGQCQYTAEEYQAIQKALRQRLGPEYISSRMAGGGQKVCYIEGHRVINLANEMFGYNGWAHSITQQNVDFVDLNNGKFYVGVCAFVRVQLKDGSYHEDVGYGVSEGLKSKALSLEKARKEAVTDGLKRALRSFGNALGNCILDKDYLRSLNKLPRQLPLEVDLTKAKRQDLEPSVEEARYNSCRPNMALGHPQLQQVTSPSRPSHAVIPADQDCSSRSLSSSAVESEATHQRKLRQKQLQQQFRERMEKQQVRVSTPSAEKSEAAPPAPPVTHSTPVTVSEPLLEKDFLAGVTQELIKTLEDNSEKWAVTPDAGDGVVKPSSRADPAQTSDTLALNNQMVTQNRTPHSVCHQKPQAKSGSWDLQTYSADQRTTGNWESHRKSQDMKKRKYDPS
# [9] = biological target: Paired box protein Pax-8 (Homo sapiens, UniProt Q06710); test: PAX8 transcriptional activity inhibition in RMG-I – RMG-I cells, luciferase, cherry-pick, dose response (AID 687027); format: functional, cell-based;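 further: luciferase reporter driven by Pax8 target thyroperoxidase promoter measured by SteadyGlo luminescence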
# Paired box protein Pax-8, sequence (Q06710 whole entry): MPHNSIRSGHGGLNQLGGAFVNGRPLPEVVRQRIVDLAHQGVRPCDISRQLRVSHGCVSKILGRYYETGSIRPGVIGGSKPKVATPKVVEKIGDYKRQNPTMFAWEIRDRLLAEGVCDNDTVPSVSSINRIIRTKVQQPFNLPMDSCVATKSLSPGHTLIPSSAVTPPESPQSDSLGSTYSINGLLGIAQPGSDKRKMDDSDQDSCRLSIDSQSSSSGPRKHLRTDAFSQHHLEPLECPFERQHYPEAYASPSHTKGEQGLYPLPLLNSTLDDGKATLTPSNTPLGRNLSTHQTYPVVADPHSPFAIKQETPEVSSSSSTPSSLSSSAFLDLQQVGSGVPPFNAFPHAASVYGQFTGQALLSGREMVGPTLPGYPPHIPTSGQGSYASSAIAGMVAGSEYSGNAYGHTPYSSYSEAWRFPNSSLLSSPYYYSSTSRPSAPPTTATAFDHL
# [10] = tested on: HEK293; test: HEK293T cell viability loss, resazurin readout – resazurin fluorescence, cytotoxicity control for NF-kB activator project, SAR follow-up (AID 493251); format: functional, cell-based; conditions: Homo sapiens
# [11] = biological target: T4, Endoribonuclease toxin MazF (Escherichia coli K-12, UniProt P0AE70); test: activation of MazEF endoribonuclease cleavage – biochemical, fluorescence, single-stranded RNA substrate, uHTS hits, dose response (AID 588481); format: functional
# T4 sequence (P0AE70 whole entry): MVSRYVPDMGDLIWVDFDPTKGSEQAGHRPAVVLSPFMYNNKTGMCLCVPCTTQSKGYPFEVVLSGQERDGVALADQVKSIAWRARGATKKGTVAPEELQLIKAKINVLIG
# [12] = biological target: T4, Endoribonuclease toxin MazF; test: substrate-only fluorescence increase artefacts – biochemical, single-stranded RNase substrate, counter-screen for MazEF activator project, dose response (AID 588502); format: functional
# [13] = biological target: T5, High affinity choline transporter 1 (Homo sapiens, UniProt Q9GZV3); test: human choline transporter blockers, potency – cell-based, 5-point CRC, membrane potential dye, dose response (AID 504840); format: functional
# T5 sequence (Q9GZV3 whole entry): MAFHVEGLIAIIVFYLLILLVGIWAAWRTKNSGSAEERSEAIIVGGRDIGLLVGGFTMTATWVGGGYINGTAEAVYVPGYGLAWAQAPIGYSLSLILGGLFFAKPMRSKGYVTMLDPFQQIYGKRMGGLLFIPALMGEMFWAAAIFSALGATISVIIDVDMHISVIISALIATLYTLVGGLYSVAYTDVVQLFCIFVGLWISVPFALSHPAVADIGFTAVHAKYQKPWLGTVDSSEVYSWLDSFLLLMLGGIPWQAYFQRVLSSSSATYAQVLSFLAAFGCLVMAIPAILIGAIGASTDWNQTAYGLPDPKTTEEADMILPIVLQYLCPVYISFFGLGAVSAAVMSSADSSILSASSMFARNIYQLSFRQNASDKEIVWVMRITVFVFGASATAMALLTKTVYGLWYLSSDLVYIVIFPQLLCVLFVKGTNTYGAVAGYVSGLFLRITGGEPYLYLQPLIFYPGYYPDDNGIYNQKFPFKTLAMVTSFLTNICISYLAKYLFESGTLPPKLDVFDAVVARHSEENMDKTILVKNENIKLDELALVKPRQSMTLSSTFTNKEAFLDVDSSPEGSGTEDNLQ
# [14] = biological target: T5, High affinity choline transporter 1; test: human choline transporter blockers, potency – cell-based, 10-point CRC, membrane potential dye, dose response (AID 588401); format: functional;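 further: membrane potential dye fluorescence of choline-evoked depolarization via CHT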
# [15] = biological target: ALK tyrosine kinase receptor (Homo sapiens, UniProt Q9UM73); format: functional;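 further: ALK tested as one member of a kinase panel screen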
# ALK tyrosine kinase receptor, sequence (Q9UM73 whole entry): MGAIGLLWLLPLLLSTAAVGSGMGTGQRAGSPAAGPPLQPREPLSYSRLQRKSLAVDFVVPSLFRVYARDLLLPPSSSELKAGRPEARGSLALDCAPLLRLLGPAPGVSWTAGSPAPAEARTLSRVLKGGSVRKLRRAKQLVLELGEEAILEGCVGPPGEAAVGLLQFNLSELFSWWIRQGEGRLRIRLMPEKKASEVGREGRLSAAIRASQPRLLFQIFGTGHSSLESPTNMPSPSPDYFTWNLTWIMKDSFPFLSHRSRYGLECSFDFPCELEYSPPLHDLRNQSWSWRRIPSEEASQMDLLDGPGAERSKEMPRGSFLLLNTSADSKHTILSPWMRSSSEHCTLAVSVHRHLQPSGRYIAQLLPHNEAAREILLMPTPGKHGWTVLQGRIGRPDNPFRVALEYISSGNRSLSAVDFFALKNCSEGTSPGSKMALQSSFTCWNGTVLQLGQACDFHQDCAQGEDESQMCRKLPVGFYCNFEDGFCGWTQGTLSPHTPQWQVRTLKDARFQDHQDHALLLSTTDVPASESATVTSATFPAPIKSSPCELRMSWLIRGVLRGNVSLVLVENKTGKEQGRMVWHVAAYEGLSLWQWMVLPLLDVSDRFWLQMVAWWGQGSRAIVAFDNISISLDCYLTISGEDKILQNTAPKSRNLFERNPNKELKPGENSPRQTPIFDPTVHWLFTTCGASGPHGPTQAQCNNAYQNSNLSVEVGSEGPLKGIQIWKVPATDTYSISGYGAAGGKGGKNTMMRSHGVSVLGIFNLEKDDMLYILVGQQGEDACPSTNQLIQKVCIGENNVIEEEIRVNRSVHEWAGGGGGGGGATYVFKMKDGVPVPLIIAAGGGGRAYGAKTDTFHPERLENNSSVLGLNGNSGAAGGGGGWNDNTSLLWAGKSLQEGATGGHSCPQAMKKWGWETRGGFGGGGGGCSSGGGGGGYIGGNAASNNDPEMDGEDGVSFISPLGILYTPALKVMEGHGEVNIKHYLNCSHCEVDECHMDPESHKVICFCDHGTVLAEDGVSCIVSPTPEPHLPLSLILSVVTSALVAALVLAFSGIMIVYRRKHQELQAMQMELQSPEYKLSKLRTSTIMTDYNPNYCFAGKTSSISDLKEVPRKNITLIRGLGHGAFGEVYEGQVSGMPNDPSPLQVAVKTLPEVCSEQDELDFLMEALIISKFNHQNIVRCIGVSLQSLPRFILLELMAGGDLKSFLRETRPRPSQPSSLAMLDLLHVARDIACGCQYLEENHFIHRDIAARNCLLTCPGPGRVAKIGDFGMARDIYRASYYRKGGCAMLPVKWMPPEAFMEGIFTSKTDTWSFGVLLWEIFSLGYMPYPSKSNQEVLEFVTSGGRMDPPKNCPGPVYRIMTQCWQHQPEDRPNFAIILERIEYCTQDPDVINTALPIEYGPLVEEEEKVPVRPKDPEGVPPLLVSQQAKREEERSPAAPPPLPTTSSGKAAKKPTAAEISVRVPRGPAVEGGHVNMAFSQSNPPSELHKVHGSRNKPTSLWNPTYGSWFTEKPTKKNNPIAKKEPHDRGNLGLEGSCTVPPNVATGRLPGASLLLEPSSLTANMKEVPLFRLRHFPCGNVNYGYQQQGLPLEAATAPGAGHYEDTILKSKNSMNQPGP
# [16] = biological target: Cyclin-dependent kinase 19 (Homo sapiens, UniProt Q9BWU1); test: Navigating the Kinome. Panel member name: CDC2L6; format: functional
# Cyclin-dependent kinase 19, sequence (Q9BWU1 whole entry): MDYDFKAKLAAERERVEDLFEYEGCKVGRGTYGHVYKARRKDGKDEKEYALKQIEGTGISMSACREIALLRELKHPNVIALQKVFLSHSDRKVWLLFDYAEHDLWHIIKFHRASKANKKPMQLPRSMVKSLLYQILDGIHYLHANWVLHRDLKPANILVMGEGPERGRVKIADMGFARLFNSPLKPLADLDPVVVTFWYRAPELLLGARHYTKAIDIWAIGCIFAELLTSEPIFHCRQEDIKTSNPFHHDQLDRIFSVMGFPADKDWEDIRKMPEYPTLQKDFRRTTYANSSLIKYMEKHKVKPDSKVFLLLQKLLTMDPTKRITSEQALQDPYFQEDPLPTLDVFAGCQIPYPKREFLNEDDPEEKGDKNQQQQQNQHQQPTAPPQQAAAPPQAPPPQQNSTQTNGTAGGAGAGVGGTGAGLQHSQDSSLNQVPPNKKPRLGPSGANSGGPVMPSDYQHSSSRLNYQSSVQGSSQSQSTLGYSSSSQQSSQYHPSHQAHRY
# Cytochrome P450 2C9, sequence (P11712 whole entry): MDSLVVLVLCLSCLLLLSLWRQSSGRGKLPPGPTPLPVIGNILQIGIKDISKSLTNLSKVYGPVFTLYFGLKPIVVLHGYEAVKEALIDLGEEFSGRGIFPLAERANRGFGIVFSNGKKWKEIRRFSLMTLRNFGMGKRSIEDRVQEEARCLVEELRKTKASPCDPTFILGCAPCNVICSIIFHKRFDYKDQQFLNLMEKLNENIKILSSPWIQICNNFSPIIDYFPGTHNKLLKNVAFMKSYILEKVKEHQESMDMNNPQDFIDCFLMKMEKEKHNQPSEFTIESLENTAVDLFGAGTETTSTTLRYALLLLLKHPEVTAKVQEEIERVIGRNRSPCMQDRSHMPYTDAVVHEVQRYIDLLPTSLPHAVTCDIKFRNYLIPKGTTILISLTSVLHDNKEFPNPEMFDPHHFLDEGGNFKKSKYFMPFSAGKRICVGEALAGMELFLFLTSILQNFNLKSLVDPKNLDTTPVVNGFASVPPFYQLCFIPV
smiles,measurement,setting,value
CC(C)n1ncc2c(C(=O)N3CCN(Cc4ccc(Br)s4)CC3)cc(C3CC3)nc21,AC50,[1],76 µM (active)
O=C(CSc1nnc2sc3ccccc3n12)NCc1ccco1,AC50,[2],inconclusive
C[C@H]1c2cccc(O)c2C(=O)C2C(=O)C3(O)C(=O)C(C(N)=O)C(=O)[C@@H](N(C)C)[C@@H]3[C@@H](O)[C@@H]21 (stereo not given in full),AC50,[3],12.3 µM (active)
same,AC50,[1],0.882 µM (active)
CN(C)CCCNC(=O)c1ccc(-c2cc(O)c3ncccc3c2)cc1,IC50,[4],7.49 µM (active)
same,IC50,[5],3.89 µM (active)
same,IC50,[6],3.15 µM (active)
same,IC50,[7],4.25 µM (active)
same,AC50,[8],0.849 µM (active)
CC(C)=CCC/C(C)=C/CNC(=O)C[C@H]1C[C@H](C(=O)N2CCOCC2)[C@@]2(C)c3[nH]c4ccc(Cl)cc4c3CCN2C1=O,AC50,[9],11.8 µM (active)
same,AC50,[1],112 µM (active)
CCNC(=O)CCc1nc(-c2ccc(OCC)cc2)no1,IC50,[10],> 80 µM (inactive)
O=C1/C(=C/c2ccc3c(c2)OCO3)SC(=S)N1CCC(=O)N(CCO)c1ccccc1,EC50,[11],> 99 µM (inactive)
same,EC50,[12],90.4 µM (inactive)
CC1CCCC(NC(=O)c2ccc(C/N=c3\c(N4CCCC4)c(O)c3=O)cc2)C1C (stereo not given),IC50,[13],0.851 µM (active)
same,IC50,[14],0.501 µM (active)
CCOc1ccc(-c2nc3ccccn3c2-c2ccnc(Nc3cccc(CCN(C)C)c3)n2)cc1,Ki,[15],0.316 µM (active)
same,Ki,[16],6.31 µM (active)
COc1ccccc1/N=C/c1c(C)c(C#N)c2nc3ccccc3n2c1O,EC50,[11],> 99 µM (inactive)
same,EC50,[12],> 99 µM (inactive)
